The test system of the test is BDF1 mice, P388 leukemia ip, median survival T/C. Nature of the test: NCI In Vivo Anticancer Drug Screen. Data for tumor model P388 Leukemia (intraperitoneal) in B6D2F1 (BDF1) mice. The settings on record: endpoint: median survival time, higher = longer survival. The method, boiled down: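 In tumour-bearing mice, survival after compound treatment is set against the vehicle group and given as a quotient.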

Where [1] appears, read: dose: 50.0 mg/kg/injection, schedule: Q01DX009 (ip), vehicle: saline with Tween-80.
Where [2] appears, read: dose: 100.0 mg/kg/injection, schedule: Q01DX009 (ip), vehicle: saline with Tween-80.
Setting [3] is: dose: 200.0 mg/kg/injection, schedule: Q01DX009 (ip), vehicle: saline with Tween-80.

Several values for one entry are separate records, joined by “and”; a condition that tells them apart may be missing. Equal values may be shown once. Inconclusive results and toxic doses are left out.

As to `COc1cc(C[C@H]2c3cc(OC)c(OC)cc3CCN2C)c(Oc2cc3c(cc2OC)-c2c(OC)c(OC)cc4c2[C@H](C3)N(C)CC4)cc1OC`, the T/C is 90 % of control (dose: 9.0 mg/kg/injection, schedule: Q01DX010 (ip), vehicle: other); 95 % of control (dose: 12.0 mg/kg/injection, schedule: Q01DX005 (ip), vehicle: other); 100 % of control (dose: 12.0 mg/kg/injection, schedule: Q01DX010 (ip), vehicle: other); 109 % of control (dose: 12.5 mg/kg/injection, schedule: Q01DX010 (ip), vehicle: other); 95 % of control (dose: 18.0 mg/kg/injection, schedule: Q04DX003 (ip), vehicle: other); 118 % of control (dose: 18.75 mg/kg/injection, schedule: Q01DX010 (ip), vehicle: other). Also, the T/C was 90 % of control (dose: 24.0 mg/kg/injection, schedule: Q01DX005 (ip), vehicle: other); 104 % of control (dose: 24.0 mg/kg/injection, schedule: Q01DX010 (ip), vehicle: other); 104 % of control (dose: 25.0 mg/kg/injection, schedule: Q01DX010 (ip), vehicle: acetone); 104 % of control (dose: 25.0 mg/kg/injection, schedule: Q01DX010 (ip), vehicle: other); 100 % of control (dose: 27.0 mg/kg/injection, schedule: Q08DX002 (ip), vehicle: other); 90 % of control (dose: 36.0 mg/kg/injection, schedule: Q04DX003 (ip), vehicle: other). Further, the T/C by setting is: (dose: 37.5 mg/kg/injection, schedule: Q01DX010 (ip), vehicle: carboxymethylcellulose (CMC)) 100 % of control; (dose: 37.5 mg/kg/injection, schedule: Q01DX010 (ip), vehicle: other) 104 % of control; (dose: 48.0 mg/kg/injection, schedule: Q01DX005 (ip), vehicle: other) 100 % of control; (dose: 48.0 mg/kg/injection, schedule: Q01DX010 (ip), vehicle: other) 104 % of control; (dose: 50.0 mg/kg/injection, schedule: Q01DX010 (ip), vehicle: acetone) 109 % of control; (dose: 50.0 mg/kg/injection, schedule: Q01DX010 (ip), vehicle: clinical formulation) 109 % of control. Further, the T/C runs as follows: (dose: 50.0 mg/kg/injection, schedule: Q01DX010 (ip), vehicle: other) 120 % of control; (dose: 54.0 mg/kg/injection, schedule: Q08DX002 (ip), vehicle: other) 95 % of control; (dose: 72.0 mg/kg/injection, schedule: Q04DX003 (ip), vehicle: other) 100 % of control; (dose: 75.0 mg/kg/injection, schedule: Q01DX010 (ip), vehicle: carboxymethylcellulose (CMC)) 100 % of control; (dose: 96.0 mg/kg/injection, schedule: Q01DX005 (ip), vehicle: other) 100 % of control; (dose: 96.0 mg/kg/injection, schedule: Q01DX010 (ip), vehicle: other) 109 % of control. Further, the T/C was 110 % of control (dose: 100.0 mg/kg/injection, schedule: Q01DX001 (ip), vehicle: carboxymethylcellulose (CMC)); 113 % of control (dose: 100.0 mg/kg/injection, schedule: Q01DX010 (ip), vehicle: acetone); 120 % of control (dose: 100.0 mg/kg/injection, schedule: Q01DX010 (ip), vehicle: other); 100 % of control (dose: 100.0 mg/kg/injection, schedule: Q04DX002 (ip), vehicle: Klucel (hydroxypropylcellulose) (HPC)); 100 % of control (dose: 108.0 mg/kg/injection, schedule: Q08DX002 (ip), vehicle: other); 105 % of control (dose: 150.0 mg/kg/injection, schedule: Q01DX010 (ip), vehicle: carboxymethylcellulose (CMC)). Moreover, the T/C runs as follows: (dose: 200.0 mg/kg/injection, schedule: Q01DX001 (ip), vehicle: carboxymethylcellulose (CMC)) 105 % of control; (dose: 200.0 mg/kg/injection, schedule: Q01DX010 (ip), vehicle: other) 100 % of control; (dose: 200.0 mg/kg/injection, schedule: Q04DX002 (ip), vehicle: Klucel (hydroxypropylcellulose) (HPC)) 91 % of control; (dose: 216.0 mg/kg/injection, schedule: Q08DX002 (ip), vehicle: other) 100 % of control; (dose: 400.0 mg/kg/injection, schedule: Q01DX001 (ip), vehicle: carboxymethylcellulose (CMC)) 110 % of control; (dose: 400.0 mg/kg/injection, schedule: Q04DX002 (ip), vehicle: Klucel (hydroxypropylcellulose) (HPC)) 100 % of control.

In the case of `Cc1ccc(NCC2(/N=C/c3ccccc3)OC(CO)C(O)C2O)cc1` (stereo unspecified), the T/C is 119 % of control (dose: 100.0 mg/kg/injection, schedule: Q04DX003 (ip), vehicle: Klucel (hydroxypropylcellulose) (HPC)); 150 % of control (dose: 200.0 mg/kg/injection, schedule: Q01DX009 (ip), vehicle: Klucel (hydroxypropylcellulose) (HPC)); 107 % of control (dose: 200.0 mg/kg/injection, schedule: Q04DX003 (ip), vehicle: Klucel (hydroxypropylcellulose) (HPC)); 158 % of control (dose: 400.0 mg/kg/injection, schedule: Q01DX009 (ip), vehicle: Klucel (hydroxypropylcellulose) (HPC)); 123 % of control (dose: 400.0 mg/kg/injection, schedule: Q04DX003 (ip), vehicle: Klucel (hydroxypropylcellulose) (HPC)).

As for `C=CC(=O)[O][Pb]([CH3])([CH3])[CH3]`, the T/C is 98 % of control (dose: 0.75 mg/kg/injection, schedule: Q01DX009 (ip), vehicle: saline) and 96 % of control (dose: 1.5 mg/kg/injection, schedule: Q01DX009 (ip), vehicle: saline).

For `O=C1OC(N2Cc3ccccc3C2=O)c2ccccc21` (stereo unspecified), the T/C was 100 % of control under setting [1], 100 % of control under setting [2] and 94 % of control under setting [3].

Turning to `CC(C)CCC(=O)C(C)C`, the T/C reads like this: (dose: 100.0 mg/kg/injection, schedule: Q04DX003 (ip), vehicle: saline with Tween-80) 91 % of control; (dose: 200.0 mg/kg/injection, schedule: Q04DX003 (ip), vehicle: saline with Tween-80) 100 % of control; (dose: 400.0 mg/kg/injection, schedule: Q04DX003 (ip), vehicle: saline with Tween-80) 95 % of control.

On to `C=CCNC(=O)C12CC3CC(CC(C3)C1)C2`, for which the T/C under setting [1] is 93 % of control, the T/C under setting [2] was 99 % of control and the T/C under setting [3] was 103 % of control.

`CN/N=C/c1cccnc1`: the T/C is, setting by setting: (dose: 12.5 mg/kg/injection, schedule: Q01DX009 (ip), vehicle: saline) 97 % of control; (dose: 25.0 mg/kg/injection, schedule: Q01DX009 (ip), vehicle: saline) 95 % of control; under setting [1], 105 % of control; (dose: 50.0 mg/kg/injection, schedule: Q01DX009 (ip), vehicle: saline) 95 % of control.

As to `CC(=O)O/C(C#N)=C1\CCCC\C1=C(\C#N)OC(C)=O`, the T/C (dose: 25.0 mg/kg/injection, schedule: Q01DX001 (ip), vehicle: saline with Tween-80) is 103 % of control.

For the compound `CN(C)CCCNC1=CC(=O)c2ccccc2C1=O`, the T/C is 108 % of control (dose: 1.56 mg/kg/injection, schedule: Q04DX003 (ip), vehicle: water); 97 % of control and 98 % of control (dose: 3.12 mg/kg/injection, schedule: Q04DX003 (ip), vehicle: water); 99 % of control (dose: 6.25 mg/kg/injection, schedule: Q01DX009 (ip), vehicle: water); 91 % of control and 101 % of control (dose: 6.25 mg/kg/injection, schedule: Q04DX003 (ip), vehicle: water); 103 % of control (dose: 12.5 mg/kg/injection, schedule: Q01DX009 (ip), vehicle: water); 97 % of control and 102 % of control (dose: 12.5 mg/kg/injection, schedule: Q04DX003 (ip), vehicle: water). The T/C (dose: 25.0 mg/kg/injection, schedule: Q01DX009 (ip), vehicle: water) was 110 % of control; the T/C (dose: 25.0 mg/kg/injection, schedule: Q04DX003 (ip), vehicle: water) is 103 % of control and 119 % of control; the T/C (dose: 50.0 mg/kg/injection, schedule: Q01DX009 (ip), vehicle: water) was 94 % of control; the T/C (dose: 50.0 mg/kg/injection, schedule: Q04DX003 (ip), vehicle: water) is 91 % of control; the T/C (dose: 100.0 mg/kg/injection, schedule: Q01DX009 (ip), vehicle: water) was 103 % of control.

As for `C[N+]1(C)N=C([O-])N(CCCCCCN2C(=O)[N+](C)(C)N=C2[O-])C1=O`, the T/C runs as follows: (dose: 100.0 mg/kg/injection, schedule: Q04DX003 (ip), vehicle: suspension in saline) 94 % of control; (dose: 200.0 mg/kg/injection, schedule: Q04DX003 (ip), vehicle: suspension in saline) 96 % of control; (dose: 400.0 mg/kg/injection, schedule: Q04DX003 (ip), vehicle: suspension in saline) 98 % of control.

The record behind these values is PubChem BioAssay AID328 (DTP/NCI, 2004).
